In patent US8563490B2, “Mild to the skin, foaming detergent composition” (Conopco, Inc., priority 2010, dated 2013):

Molecular target: a-Chymotrypsin from bovine pancreas (Bos taurus, UniProt P00766)
Procedure: The basis of the mildness assay is the enzymatic activity of Chymotrypsin on a chromogenic substrate. Surfactant mildness is assessed by the effect of a surfactant on the enzyme protein. A harsh surfactant will degrade Chymotrypsin, leading to a lower optical density reading in the reaction well. The enzyme used for this assay is a-Chymotrypsin from bovine pancreas. The enzyme used is the chromogenic substrate for Chymotrypsin, N-Succinyl-Ala-Ala-Pro-Phe-pNA.
The basis of the surfactant protein mildness detecting assay used was the enzymatic activity of Chymotrypsin on a chromogenic substrate. A harsh surfactant degrades Chymotrypsin, leading to a lower absorbance reading. Any reading greater than 0.8% is taken to be a pass for mildness.
For the skin protein protection assay, 70 μl stock buffer solution (33 mM of Tris pH8.0, 180 mM of NaCl, 1 mM of CaCl2), 10 μl substrate stock solution (Ala-Ala-Pro-Phe-pNA; 4 mg/ml) and 20 μl enzyme (α-Chyotrypsin; 10 ng per well) were added to the wells of a 96-well plate together with 100 ul of the formulations pre-diluted 1:10 in water. Reaction mixes were incubated for 45 minutes before colorimetric measurements were taken at 405 nm by a SpectraMax plate reader.

- Mildness Lsmean (least squares mean of Absorbance values): 0.36
Substance: Saponin extract from Zizyphus joazero [hh]
